{"source": "patent US4315009A", "about": "“Antisecretory guanidine derivatives and pharmaceutical compositions containing them” (Imperial Chemical Industries Limited, priority 1978, dated 1982)", "assay": "overt toxicity in mice after intraperitoneal dosing", "assay_type": "in vivo", "settings": "intraperitoneally, 50 mg./kg."}
{"smiles": "C/N=C(\\NC#N)Nc1cccc(-c2csc(N=C(N)N)n2)c1", "note": "[Example 2, 2-guanidino-4-[3-(2-cyano-3-methylguanidino)phenyl]thiazole]", "values": [{"measurement": "overt toxicity", "result": "no overt toxicity"}]}
